Assay results as given in BigSolDB 2.1.

O=[N+]([O-])c1cccc2c([N+](=O)[O-])cccc12
solubility (mole fraction)
Settings	in acetone	in acetonitrile	in chloroform	in ethanol	in ethyl acetate	in ethylbenzene	in n-propanol	in toluene
273.15 K	0.000703	0.000236	0.000629	1.99e-05	0.000648	0.000522	2.17e-05	0.000683
275.65 K	0.000762	0.000265	0.000731	2.25e-05	0.000699	0.000578	2.53e-05	0.000761
278.15 K	0.000844	0.000296	0.000881	2.62e-05	0.000754	0.000638	2.96e-05	0.000858
280.65 K	0.000912	0.000333	0.00102	3.1e-05	0.000835	0.000714	3.41e-05	0.000958
283.15 K	0.000991	0.000372	0.00118	3.66e-05	0.000923	0.000785	3.92e-05	0.00106
285.65 K	0.00108	0.000415	0.00135	4.16e-05	0.000998	0.000863	4.45e-05	0.00117
288.15 K	0.00117	0.000468	0.00153	4.81e-05	0.00113	0.000941	5.16e-05	0.00129
290.65 K	0.00126	0.00053	0.0017	5.43e-05	0.00123	0.00104	5.77e-05	0.00141
293.15 K	0.00138	0.000585	0.00192	6.15e-05	0.00136	0.00116	6.54e-05	0.00153
295.65 K	0.00149	0.000659	0.00213	6.94e-05	0.00148	0.00129	7.43e-05	0.0017
298.15 K	0.00164	0.000741	0.00238	7.82e-05	0.00164	0.0014	8.45e-05	0.00186
300.65 K	0.00174	0.000831	0.00269	8.74e-05	0.0018	0.00152	9.67e-05	0.00205
303.15 K	0.0019	0.000914	0.00295	9.75e-05	0.00198	0.00166	0.00011	0.00223
305.65 K	0.00201	0.000997	0.00334	0.000109	0.00218	0.00182	0.000126	0.00242
308.15 K	0.00217	0.00111	0.00369	0.000122	0.00238	0.00201	0.000142	0.00264
310.65 K	0.00229	0.00121	0.00408	0.000139	0.00258	0.00219	0.000163	0.00287
313.15 K	0.00242	0.00133	0.00451	0.000157	0.00284	0.00248	0.000182	0.00309
